Data taken from US20130029381A1, “MICROORGANISMS FOR THE PRODUCTION OF 1,4-BUTANEDIOL, 4-HYDROXYBUTANAL, 4-HYDROXYBUTYRYL-COA, PUTRESCINE AND RELATED COMPOUNDS, AND METHODS RELATED THERETO” (GENOMATICA, INC., priority 2009, published 2013).

Molecular target: T1, L(+)-lactate dehydrogenase from A. eutrophus (Cupriavidus necator, UniProt Q07251)
T1 sequence (Q07251 1-349): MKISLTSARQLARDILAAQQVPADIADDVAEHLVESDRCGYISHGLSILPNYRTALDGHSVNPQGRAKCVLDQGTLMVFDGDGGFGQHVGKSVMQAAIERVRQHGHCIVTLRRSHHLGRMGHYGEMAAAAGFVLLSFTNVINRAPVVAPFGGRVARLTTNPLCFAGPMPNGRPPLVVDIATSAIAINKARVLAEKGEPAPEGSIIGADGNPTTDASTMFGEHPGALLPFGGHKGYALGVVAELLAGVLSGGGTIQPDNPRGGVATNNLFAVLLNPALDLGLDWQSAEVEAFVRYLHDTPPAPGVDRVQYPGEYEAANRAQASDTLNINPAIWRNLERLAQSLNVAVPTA
Assay: not given
Details: compared with that on pyruvate; cited from earlier work

| Compound | Activity (%) of L(+)-lactate dehydrogenase from A. eutrophus |
| --- | --- |
| CCC(=O)C(=O)O [2-Oxobutyrate] | 107.0% |
| CC(C)C(=O)C(=O)O [3-Methyl-2-oxobutyrate] | 28.5% |
| O=C(O)CCC(=O)C(=O)O [2-Oxoglutarate] | 79.6% |
| O=C(O)C(=O)CF [3-Fluoropyruvate] | 33.6% |
| CCCC(=O)C(=O)O [2-Oxovalerate] | 125.0% |

Molecular target: T2, L(+)-lactate dehydrogenase from rabbit muscle (Oryctolagus cuniculus, UniProt P13491)
T2 construct: rabbit muscle; host or cells: rabbit muscle
Assay: not given
Details: compared with that on pyruvate; cited from earlier work

| Compound | Activity (%) of L(+)-lactate dehydrogenase from rabbit muscle |
| --- | --- |
| O=CC(=O)O [Glyoxylate] | 23.9% |

Molecular target: homoserine kinase (Escherichia coli, UniProt P00547)
Assay: not given
Details: cited from earlier work

homoserine kinase, sequence (P00547 whole entry): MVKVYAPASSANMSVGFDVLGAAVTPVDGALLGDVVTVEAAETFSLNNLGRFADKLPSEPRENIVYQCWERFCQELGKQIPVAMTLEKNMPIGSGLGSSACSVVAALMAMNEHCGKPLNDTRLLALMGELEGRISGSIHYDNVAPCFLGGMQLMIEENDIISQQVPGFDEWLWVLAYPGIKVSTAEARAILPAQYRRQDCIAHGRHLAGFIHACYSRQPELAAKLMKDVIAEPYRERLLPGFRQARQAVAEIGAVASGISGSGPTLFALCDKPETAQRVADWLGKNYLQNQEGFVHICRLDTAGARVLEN

| Compound | Km |
| --- | --- |
| N[C@H](CCO)C(=O)O [D-homoserine] | 31.8 ± 7.2 mM |
| CC(C)OC(=O)[C@@H](N)CCO [L-homoserine isopropyl ester] | 1.2 ± 0.5 mM |
| N[C@H](CO)CCO [L-2-amino-1,4-butanediol] | 11.6 ± 6.5 mM |
| CCCOC(=O)[C@@H](N)CCO [L-homoserine n-propyl ester] | 3.5 ± 0.4 mM |
| N[C@@H](CCO)C(=O)O [L-homoserine] | 0.14 ± 0.04 mM |
| COC(=O)[C@@H](N)CCO [L-homoserine methyl ester] | 4.9 ± 2 mM |
| CCOC(=O)[C@@H](N)CCO [L-homoserine ethyl ester] | 1.9 ± 0.5 mM |
| CC(C)COC(=O)[C@@H](N)CCO [L-homoserine isobutyl ester] | 6.9 ± 1.1 mM |

System: CCCC=O
Assay: ADH enzyme assay of Adh1 (084), Km for aldehyde substrates
Format: biochemical, Geobacillus thermoglucosidasius
Details: other: reductive ADH assay, enzyme expressed in E. coli; pH 7.5
Description: (§1) The Adh1 enzyme (084) expressed very well from its native gene in E. coli (see FIG. 32A).

| Compound | Km |
| --- | --- |
| Adh1 enzyme (084) (Geobacillus sp. M10EXG) | 1.2 mM |

System: O=CCCCO
Assay: as above
Format: biochemical, Geobacillus thermoglucosidasius
Details: other: reductive ADH assay, enzyme expressed in E. coli; pH 7.5
Description: as §1

| Compound | Km |
| --- | --- |
| Adh1 enzyme (084) (Geobacillus sp. M10EXG) | 4.0 mM |
